In patent US20140171629A1, “MEDICINAL AGENT FOR MEDICAL APPLICATIONS” (HITACHI ALOKA MEDICAL, LTD., priority 2011, published 2014):

What was measured:
[1] = system: rhabdomyosarcoma cell line (NUTOS); assay: Survival rate of confluent NUTOS cells 15 hours after adding anticancer agent (trypan blue count); assay type: cell-based, human; conditions: serum-free DMEM/F12, 15 hours, n=5, FIG. 1
Description: A rhabdomyosarcoma cell line (NUTOS) established from alveolar rhabdomyosarcoma developed in the tongue of a child was used. […] In FIG. 1, the horizontal axis represents the concentration (ng/ml) of the added anticancer agent and the longitudinal axis represents the survival rate (%) of the cells after 15 hours (n=5). 1. Cells were plated on a plate and cultured to a confluent state using a DMEM/F12 culture medium supplemented with 15% fetal bovine serum. 2. The culture medium was removed and replaced with a serum-free DMEM/F12 culture medium supplemented with a given amount of an anticancer agent, and the cells were cultured for 15 hours. 3. The culture medium was removed, and the cells were washed with Hanks' solution and detached with trypsin. The detached cells were transferred to a tube and centrifuged. 4. The supernatant was removed, and the cells were suspended in a given amount of a culture medium. 5. An aliquot of the cell suspension was taken and the same amount of trypan blue was added thereto. Then, the cells were counted using a hemocytometer.

[2] = system: rhabdomyosarcoma cell line (HUMENS); assay: Survival rate of confluent HUMENS cells 15 hours after adding anticancer agent (trypan blue count); assay type: cell-based; conditions: FIG. 2
Description: 1. Cells were plated on a plate and cultured to a confluent state using a DMEM/F12 culture medium supplemented with 15% fetal bovine serum.
2. The culture medium was removed and replaced with a serum-free DMEM/F12 culture medium supplemented with a given amount of an anticancer agent, and the cells were cultured for 15 hours.
3. The culture medium was removed, and the cells were washed with Hanks' solution and detached with trypsin. The detached cells were transferred to a tube and centrifuged.
4. The supernatant was removed, and the cells were suspended in a given amount of a culture medium.
5. An aliquot of the cell suspension was taken and the same amount of trypan blue was added thereto. Then, the cells were counted using a hemocytometer.
The percentage of incorporation of a dye was counted 15 hours after adding an anticancer agent (s-PTX, s-CDDP, s-CBDCA, s-ADM, or s-CPA (all of which are in Example 8), PTX, CDDP, CBDCA, ADM, or CPA (all of which are in Comparative Example 2)) to confluent cells (HUMENS) in the same manner as in Example 7 or Comparative Example 1, except that a rhabdomyosarcoma cell line (HUMENS) established from alveolar rhabdomyosarcoma obtained from the mammary gland was used as the cells in place of NUTOS.

NUTOS cells = assay: Incorporation of serotonin into NUTOS cells (culture medium level, anti-serotonin antibody immunostaining); assay type: cell-based, human; conditions: serotonin in fetal bovine serum added to culture medium
Description: When fetal bovine serum containing serotonin was added to a culture medium containing this NUTOS cell line, the amount of serotonin in the culture medium was decreased. […] The detailed mechanism of this incorporation has not been elucidated yet, and also the role of serotonin incorporated therein has not been elucidated yet.

Compound | anticancer effect (survival rate of the cells after 15 hours) [1] | anticancer effect (survival rate of the cells after 15 hours) [2] | incorporation into NUTOS cells (NUTOS cells)
N.N.O=C([O-])C1(C(=O)[O-])CCC1.[Pt+2] [CBDCA, carboplatin] | exhibited an anticancer effect by itself | exhibited an anticancer effect by itself | –
CC(=O)O[C@H]1C(=O)[C@@]2(C)[C@H]([C@H](OC(=O)c3ccccc3)[C@]3(O)C[C@H](OC(=O)[C@H](O)[C@@H](NC(=O)c4ccccc4)c4ccccc4)C(C)=C1C3(C)C)[C@]1(OC(C)=O)CO[C@@H]1C[C@@H]2O [PTX, paclitaxel] | exhibited an anticancer effect by itself | exhibited an anticancer effect by itself | –
[NH2][Pt]([NH2])([Cl])[Cl] [CDDP, cisplatin] | exhibited an anticancer effect by itself | exhibited an anticancer effect by itself | –
NCCc1c[nH]c2ccc(O)cc12 [serotonin] | – | – | specifically incorporated into the NUTOS cells
O=P1(N(CCCl)CCCl)NCCCO1 (centres unmarked) [CPA, cyclophosphamide] | only a slight anticancer effect | exhibited an anticancer effect by itself | –
COc1cccc2c1C(=O)c1c(O)c3c(c(O)c1C2=O)C[C@@](O)(C(=O)CO)C[C@@H]3O[C@H]1C[C@H](N)[C@H](O)[C@H](C)O1.Cl [ADM, adriamycin] | only a slight anticancer effect | only a slight anticancer effect | –
